Source: patent US11339128B2 (Firmenich Incorporated, priority 2014, dated 2022)

Tests used:
T1R2/T1R3 taste receptor = target: T1, T1R2/T1R3 taste receptor (Homo sapiens, UniProt Q7RTX0+Q8TE23); test: Receptor-based assay: sweetener EC50 enhancement ratio with and without test compound; format: cell-based; settings: for Sucrose Enhancement EC50 Ratio: sweetener sucrose; for Sucralose Enhancement EC50 Ratio: sweetener sucralose; for Fructose Enhancement EC50 Ratio: sweetener fructose
T1 sequence (Q8TE23 20-839): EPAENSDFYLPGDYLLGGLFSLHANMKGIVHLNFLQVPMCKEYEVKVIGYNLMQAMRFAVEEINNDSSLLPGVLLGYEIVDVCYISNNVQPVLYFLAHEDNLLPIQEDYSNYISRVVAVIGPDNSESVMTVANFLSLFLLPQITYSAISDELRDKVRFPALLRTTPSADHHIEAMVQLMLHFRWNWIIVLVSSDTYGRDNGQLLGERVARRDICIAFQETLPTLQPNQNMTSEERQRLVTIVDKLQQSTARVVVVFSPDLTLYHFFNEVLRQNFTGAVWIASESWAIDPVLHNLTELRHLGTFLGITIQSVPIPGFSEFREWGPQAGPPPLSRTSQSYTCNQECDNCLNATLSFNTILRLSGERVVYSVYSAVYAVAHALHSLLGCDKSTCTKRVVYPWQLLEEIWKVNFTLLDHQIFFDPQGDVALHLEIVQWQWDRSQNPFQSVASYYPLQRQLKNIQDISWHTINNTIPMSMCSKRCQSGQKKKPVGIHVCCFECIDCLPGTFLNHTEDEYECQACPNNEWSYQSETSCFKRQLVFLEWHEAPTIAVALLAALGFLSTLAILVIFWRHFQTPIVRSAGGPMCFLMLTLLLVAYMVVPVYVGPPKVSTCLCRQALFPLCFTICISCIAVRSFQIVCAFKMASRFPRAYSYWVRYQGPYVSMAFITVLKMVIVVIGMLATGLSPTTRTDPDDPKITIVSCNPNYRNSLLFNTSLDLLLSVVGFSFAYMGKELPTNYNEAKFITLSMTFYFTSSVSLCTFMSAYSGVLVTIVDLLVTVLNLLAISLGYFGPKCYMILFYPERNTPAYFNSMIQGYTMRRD
T1 sequence (Q7RTX0 21-852): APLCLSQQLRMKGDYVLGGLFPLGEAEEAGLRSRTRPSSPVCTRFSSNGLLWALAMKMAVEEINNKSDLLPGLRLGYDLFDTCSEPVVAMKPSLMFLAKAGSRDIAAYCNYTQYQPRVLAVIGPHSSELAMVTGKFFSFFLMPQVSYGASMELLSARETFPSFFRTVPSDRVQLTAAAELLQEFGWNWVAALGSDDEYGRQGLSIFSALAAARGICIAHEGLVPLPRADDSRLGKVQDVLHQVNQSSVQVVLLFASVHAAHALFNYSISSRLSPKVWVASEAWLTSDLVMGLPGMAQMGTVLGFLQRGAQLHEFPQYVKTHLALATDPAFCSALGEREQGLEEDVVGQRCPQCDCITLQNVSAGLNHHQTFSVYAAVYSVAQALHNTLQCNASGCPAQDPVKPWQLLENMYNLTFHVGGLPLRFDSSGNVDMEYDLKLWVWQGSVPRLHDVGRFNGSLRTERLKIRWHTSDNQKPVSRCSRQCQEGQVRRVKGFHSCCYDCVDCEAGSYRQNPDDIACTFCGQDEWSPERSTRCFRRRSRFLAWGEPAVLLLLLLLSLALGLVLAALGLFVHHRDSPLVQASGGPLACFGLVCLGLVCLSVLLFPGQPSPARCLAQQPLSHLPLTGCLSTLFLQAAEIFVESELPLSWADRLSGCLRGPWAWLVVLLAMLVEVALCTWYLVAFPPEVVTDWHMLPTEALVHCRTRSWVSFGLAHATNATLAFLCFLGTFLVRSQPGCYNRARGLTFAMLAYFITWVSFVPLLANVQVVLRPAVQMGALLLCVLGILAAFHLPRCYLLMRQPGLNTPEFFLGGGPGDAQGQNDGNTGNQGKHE
Outline: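 Sweetener (sucrose, sucralose, fructose) EC50 measured alone and with 1, 3, 10 or 50 μM test compound. Enhancement ratio = EC50 without/with compound; A = >1 to <10, B = 10–20, C = >20.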

[1] = Sensory paired-comparison sweetness test of sweetener (sucrose or high-fructose corn syrup) with test compound; format: in vivo, human; settings: test compound 10 ppm or less with 6% sucrose, low sodium buffer pH 7.1; sucrose-alone concentration of equivalent perceived sweetness
Procedure: Test samples containing either a sweetener (sucrose or high-fructose corn syrup) alone or in combination with a test compound were presented in pairs to a group of panelist who were asked to determine which of the samples was sweeter. Subjects refrained from eating or drinking (except water) for at least 1 hour prior to the test. Subjects rinsed with water several times to clean the mouth. The samples within a paired comparison test were presented in a randomized, counterbalanced order. Panelists had up to a 1 minute delay between taste tests to clear the mouth of any tastes. Binomial probability tables were used to determine the probability of the correct number of responses occurring for each test at alpha-0.05.
Stock solutions of test compounds were prepared at 1000× final concentration with ethanol to ensure dispersion in solution. Test compound samples including sucrose were prepared by diluting the stock solutions in a low sodium buffer (0.952 g of KCl, 5.444 g of Na2HPO4, and 0.952 g of KH2PO4 in deionized ultrafiltered water) at pH 7.1 and containing sucrose. Test compound samples including high fructose corn syrup were prepared by diluting the stock solutions in the low sodium buffer at pH 2.8 (using citric acid to adjust the pH) and containing high fructose corn syrup. Control samples were balanced to 0.1% ethanol final.
In samples containing the test compound, the test compound was present at a concentration of 10 ppm or less and the concentration of sucrose was 6%. This table indicates the sucrose-alone concentration having a perceived sweetness intensity equivalent to the sweetness intensity of the combination of test compound and sucrose. An “A” value indicates an equivalent sucrose concentration greater than 6% and less than 10%. A “B” value indicates an equivalent sucrose concentration of 10% or greater. […]

Sucrose Enhancement EC50 Ratio (T1R2/T1R3 taste receptor; 1 μM test compound) | Sucrose Enhancement EC50 Ratio (T1R2/T1R3 taste receptor; 3 μM test compound) | Sucralose Enhancement EC50 Ratio (T1R2/T1R3 taste receptor; 10 μM test compound) | Sucrose Enhancement EC50 Ratio (T1R2/T1R3 taste receptor; 10 μM test compound) | melting point [°C] | Sucralose Enhancement EC50 Ratio (T1R2/T1R3 taste receptor; 3 μM test compound) | Structure (SMILES) | Equivalent Sucrose Conc. [1] | Fructose Enhancement EC50 Ratio (T1R2/T1R3 taste receptor; 10 μM test compound)
B (an enhancement ratio from 10 to 20) | C (an enhancement ratio greater than 20) | – | C (an enhancement ratio greater than 20) | 225 to 228 | – | Cc1nc2cccc(O[C@H]3CC[C@H](C)CC3)c2c(N)c1C(=O)O [Compound 100, 4-Amino-2-methyl-5-((trans-4-methylcyclohexyl)oxy)quinoline-3-carboxylic acid] | B (an equivalent sucrose concentration of 10% or greater) | –
B (an enhancement ratio from 10 to 20) | C (an enhancement ratio greater than 20) | B (an enhancement ratio from 10 to 20) | C (an enhancement ratio greater than 20) | 204 to 206 | – | CCOCC(=O)N[C@H]1CC[C@H](Oc2cccc3nc(C)c(C(=O)O)c(N)c23)CC1 [Compound 300, 4-Amino-5-((trans-4-(2-ethoxyacetamido)cyclohexyl)oxy)-2-methylquinoline-3-carboxylic acid] | B (an equivalent sucrose concentration of 10% or greater) | –
C (an enhancement ratio greater than 20) | C (an enhancement ratio greater than 20) | C (an enhancement ratio greater than 20) | C (an enhancement ratio greater than 20) | – | – | COC[C@H]1CC[C@H](Oc2cccc3nc(C)c(C(=O)O)c(N)c23)CC1 [Compound 101, 4-Amino-5-((trans-4-(methoxymethyl)cyclohexyl)oxy)-2-methylquinoline-3-carboxylic acid] | A (an equivalent sucrose concentration greater than 6% and less than 10%) | A (an enhancement ratio of greater than 1 and less than 10)

Structure (SMILES) | Sucrose Enhancement EC50 Ratio (T1R2/T1R3 taste receptor; 1 μM test compound) | Sucrose Enhancement EC50 Ratio (T1R2/T1R3 taste receptor; 3 μM test compound) | Sucralose Enhancement EC50 Ratio (T1R2/T1R3 taste receptor; 10 μM test compound) | Sucrose Enhancement EC50 Ratio (T1R2/T1R3 taste receptor; 10 μM test compound) | melting point [°C] | Sucralose Enhancement EC50 Ratio (T1R2/T1R3 taste receptor; 3 μM test compound) | Equivalent Sucrose Conc. [1] | Fructose Enhancement EC50 Ratio (T1R2/T1R3 taste receptor; 10 μM test compound)
CCCOCC(=O)N[C@H]1CC[C@H](Oc2cccc3nc(C)c(C(=O)O)c(N)c23)CC1 [Compound 305] | B (an enhancement ratio from 10 to 20) | A (an enhancement ratio of greater than 1 and less than 10) | C (an enhancement ratio greater than 20) | A (an enhancement ratio of greater than 1 and less than 10) | – | – | B (an equivalent sucrose concentration of 10% or greater) | –
Cc1nc2cccc(O[C@H]3CC[C@H](NC(=O)COC(C)C)CC3)c2c(N)c1C(=O)O [Compound 306] | B (an enhancement ratio from 10 to 20) | A (an enhancement ratio of greater than 1 and less than 10) | A (an enhancement ratio of greater than 1 and less than 10) | A (an enhancement ratio of greater than 1 and less than 10) | – | – | B (an equivalent sucrose concentration of 10% or greater) | –
Cc1nc2cccc(O[C@H]3CC[C@H](NC(=O)COC4CCCC4)CC3)c2c(N)c1C(=O)O [Compound 310] | C (an enhancement ratio greater than 20) | – | A (an enhancement ratio of greater than 1 and less than 10) | – | – | B (an enhancement ratio from 10 to 20) | B (an equivalent sucrose concentration of 10% or greater) | A (an enhancement ratio of greater than 1 and less than 10)
